Data set [1] has as its system human bronchial epithelial cell (HBE). Nature of the data set: Short circuit current (Isc) of cultured human bronchial epithelial cells in Ussing chambers. The settings on record: for Sodium current: 70 nM. It is filed as cell-based.
Experimental: Tertiary HBE cell monolayers grown to confluence were mounted in modified Ussing chambers, immersed in Krebs buffer (KBR) solution and bubbled with 95% 02/5% C02 warmed to 37 C.
Cells were left to equilibrate for 20 minutes before calibrating for background noise and fluid resistance. Transepithelial potential difference was then clamped to 0 mV using a WPI EVC 4000 voltage clamp. Ag/AgCl electrodes were used to monitor Isc. […] Once a response to amiloride was seen, it was washed out with KBR solution. […] 90 minutes following agent treatment, amiloride (10 uM) was added. Once the current was stable forskolin (10 uM in PBS) and then bumetanide (100 uM in PBS) was added.
Cells were left to equilibrate for 20 minutes before calibrating for background noise and fluid resistance. Transepithelial potential difference was then clamped to 0 mV using a WPI EVC 4000 voltage clamp. Ag/AgCl electrodes were used to monitor Isc. […] Once a response to amiloride was seen, it was washed out with KBR solution. […] 90 minutes following agent treatment, amiloride (10 uM) was added.
Data set [2] relates to Xenopus kidney epithelial cells (A6 cells). The conditions noted are these: exposure of the apical membrane, Vallet et al 1997, Chraibi et al 1998, cited from earlier work.
A further data set deals with guinea pig trachea. As to the kind of experiment: Tracheal mucus velocity (TMV) in the guinea-pig. The settings on record: 10 mM x 20 mins aerosol, 15 minutes after aerosol. It is filed as in vivo. Here is the method:
[…] […] The procedure used in this Example is described in Newton et al. in “Cila, Mucus and Mucociliary Interactions,” Ed., Baum, G. L. et al., Marcel Dekker, New York, 1998; Newton et al., Ped. Pulm. S17, Abs. 364, 998).
A Bikunin formulation (50 ug/mL Bikunin (SEQ ID NO: 52) was prepared in HBBS containing 137 mM NaCl, 3 mM KC1, 3 mM KH2PO4, 8 mM Na2HPO4, 0.2% Tween-80, pH 7.1). The formulation was sterile filtered and endotoxin tested prior to use in this example. HBSS was used as a control solution. Hypnorm® (Fentanyl citrate 0.315 mg/mL and Fluanisone 10 mg/mL) was obtained from Janssen Animal Health and Hypnovel® (Midazolam 5 mg/mL) was obtained from Roche. Male Dunkin-Hartley guinea pigs (550-750 g) were supplied by David Hall, UK. Thermistor probes were obtained from Kane-May Ltd, UK. […]
TMV was monitored using a lead collimated miniature Beta particle detector probe arranged to detect the radioactivity emitted from an injected aliquot of ^32P-labelled Saccharomyces cerevisiae as it was transported on the tracheal mucociliary layer of an anaesthetized guinea pig (Newton and Hall 1998) FIG. 16(a) illustrates the arrangement of the syringe and beta probe. FIG. 16(b) illustrates the counts detected by the probe as the ^32P-labelled S.cerevisiae is transported along the tracheal mucociliary layer. […]
[…] TMV was monitored immediately and every 15 minutes for 30 minutes. […]

Another data set deals with diseased patients. The conditions noted are these: inhalation; Robinson et al 1997, App et al 1990; cited from earlier work.
For another data set, the target named is T1, human plasma kallikrein (Homo sapiens, UniProt P03952).
T1 construct: purchased Sigma (St. Louis, Mo.)
Nature of the data set: Inhibition of human plasma kallikrein, Ki. Type of data set: biochemical. The conditions noted are these: for Potency as inhibitor of plasma kallikrein compared with aprotinin (Trasylol), in words: in vitro. Here is the method:
Proteases. Bovine trypsin, human plasmin, and bovine pancreatic kallikrein quantitation was carried out by active site titration using p-nitrophenyl p′-guanidinobenzoate HCl as previousl) described (Chase, T., and Shaw, E., (1970) Methods Enzmol. 19, 20-27). […] Human tissue kallikrein (Bayer, Germany) quantification was carried out by active site titration using p′nitrophenyl p′-guanidinobenzoate HCl as previously described (Chase, T., and Shaw, E., (1970) Methods Enzmol. 19, 20-27).
After 5 min. at 37° C., 15 μl of 2 mM GPK-AMC was added and the change in fluorescence (as above) was monitored. […] After 5 min. incubation at 37° C., 25 μl of 20 mM GPK-AMC was added and the change in fluorescence monitored. […] After 5 min. at 37° C. 15 μl of 20 mM PFR-AMC was added and the change in fluorescence monitored.

Data set [3] can be described thus: Isoelectric point by isoelectric focusing. It is filed as physicochemical. The conditions noted are these: Ampholine PAGplate pH 3.5 to 9.5, refolded purified protein. Here is the method:
After staining, the migration distance from the cathodic edge of the gel to the different protein bands was measured. The pI of each unknown was determined by using a standard curve generated by a plot of the migration distance of standards versus the corresponding pI's. […] (Tenstad et al., 1994, Acta Physiol. Scand. 152:33-50).

The next data set deals with allergic sheep. The conditions noted are these: cited from earlier work.
The subject of data set [4] is human bronchial epithelial cell (HBE). The settings on record: 1.5 μg.ml−1 (70 nM), normal HBE cells; McAulay et al 1998; cited from earlier work.

Where two headings read alike, the source gives them in different places.

T1 sequence (P03952 391-638 limits assumed): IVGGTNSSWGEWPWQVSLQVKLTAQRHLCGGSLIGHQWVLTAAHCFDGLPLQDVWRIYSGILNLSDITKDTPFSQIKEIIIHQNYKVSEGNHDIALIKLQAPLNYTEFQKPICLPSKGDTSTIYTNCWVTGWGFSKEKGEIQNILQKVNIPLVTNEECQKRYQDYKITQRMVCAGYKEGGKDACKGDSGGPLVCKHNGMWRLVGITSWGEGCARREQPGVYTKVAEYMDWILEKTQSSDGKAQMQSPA
T1 sequence (P03952 20-390 partner limits assumed): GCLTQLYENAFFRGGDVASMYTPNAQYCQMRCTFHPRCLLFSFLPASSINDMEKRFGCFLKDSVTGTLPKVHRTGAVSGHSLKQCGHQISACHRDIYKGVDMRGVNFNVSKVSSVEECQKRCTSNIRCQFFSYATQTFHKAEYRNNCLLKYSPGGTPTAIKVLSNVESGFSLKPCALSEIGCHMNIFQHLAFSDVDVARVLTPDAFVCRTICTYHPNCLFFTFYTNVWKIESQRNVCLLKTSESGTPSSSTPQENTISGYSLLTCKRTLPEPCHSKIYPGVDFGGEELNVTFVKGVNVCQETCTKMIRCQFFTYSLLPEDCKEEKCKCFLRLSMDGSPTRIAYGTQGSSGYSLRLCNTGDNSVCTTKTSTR

For the molecule Aprotinin, the “Sodium short circuit current” value in data set [1] (5 ug/mL, FIG. 20) was “decrease”. The “Transepithelial Na+ transport” value in data set [2] is on record as “reduce”; in data set [2] (listed as aprotinin), “reduced”.
For the molecule `N=C(N)NC(=O)c1nc(Cl)c(N)nc1N` [amiloride], in the data set on guinea pig trachea, the TMV after aerosol entry is recorded as “statistically significant increase”. Further, the “MCC in diseased patients” value with diseased patients is on record as “significantly increase”.
For the molecule `CC[C@H](C)[C@@H]1NC(=O)[C@H](Cc2ccccc2)NC(=O)[C@H](CC(N)=O)NC(=O)[C@H](CC(N)=O)NC(=O)[C@@H]2CSSC[C@@H]3NC(=O)[C@H](C)NC(=O)[C@H](CCC(=O)O)NC(=O)[C@H](CCC(=O)O)NC(=O)[C@H](CO)NC(=O)[C@H](CCCNC(=N)N)NC(=O)[C@H](Cc4ccc(O)cc4)NC(=O)[C@H](CO)NC(=O)[C@H](CC(N)=O)NC(=O)[C@H](CCCCN)NC(=O)[C@H](CC(N)=O)NC(=O)CNC(=O)[C@H](CCCNC(=N)N)NC(=O)[C@H](CSSC[C@H](NC(=O)[C@@H]4CCCN4C(=O)CNC(=O)[C@H]([C@@H](C)O)NC(=O)[C@H](C(C)C)NC(=O)[C@H](C)NC(=O)[C@H](CC(N)=O)NC(=O)[C@H](C)NC(=O)[C@H]([C@@H](C)O)NC(=O)[C@@H](NC(=O)[C@H](Cc4ccc(O)cc4)NC(=O)[C@H](CCC(=O)O)NC(=O)[C@H](CCC(=O)O)NC(=O)[C@@H](N)Cc4ccc(O)cc4)CSSC[C@@H](C(=O)N[C@@H](Cc4ccccc4)C(=O)N[C@@H](CCCNC(=N)N)C(=O)N[C@@H](CCC(N)=O)C(=O)O)NC(=O)[C@H](CCCNC(=N)N)NC(=O)[C@H](CC(C)C)NC(=O)[C@H](CCSC)NC3=O)C(=O)N[C@@H](CCCNC(=N)N)C(=O)N[C@@H](C)C(=O)N[C@@H](CO)C(=O)N[C@@H](Cc3ccccc3)C(=O)N3CCC[C@H]3C(=O)N[C@@H](CCCNC(=N)N)C(=O)N[C@@H](Cc3c[nH]c4ccccc34)C(=O)N[C@@H](Cc3ccc(O)cc3)C(=O)N[C@@H](Cc3ccccc3)C(=O)N[C@@H](CC(=O)O)C(=O)N[C@@H](C(C)C)C(=O)N[C@@H](CCC(=O)O)C(=O)N[C@@H](CCCNC(=N)N)C(=O)N[C@@H](CC(N)=O)C(=O)N[C@@H](CO)C(=O)N2)NC(=O)CNC(=O)CNC(=O)[C@H](Cc2ccc(O)cc2)NC1=O` [Bikunin (102-159)], the Ki on human plasma kallikrein (Kallikrein ([…] nM), Table 4B) was found to be 7 nM. Besides, the “Potency as inhibitor of plasma kallikrein compared with aprotinin (Trasylol), in words” value on human plasma kallikrein is on record as “significantly more potent”. Besides, the pI in data set [3] was determined as 8.3.
Turning to “Des Pro2-Ser10-Arg15-Asp24-Thr26-Glu31-Asn41-Glu53-Aprotinin [Aprotinin double mutein]”, the “Sodium short circuit current” value in data set [1] (0.5 to 5 ug/mL, 90 minute period) was “dose dependently inhibited”; in data set [1] (0.5 to 5 ug/mL, 90 minute period, listed as aprotinin double mutein), “decrease”.
As for “α1-PI: serpin-family serine protease inhibitor alpha(1)-protease inhibitor”, the “Effect on Na+ Isc” value in data set [1] (50 μg.ml−1, normal HBE cells, further study) is on record as “without a significant effect”. Moreover, the “Antigen-induced reduction in TMV” value in the data set on allergic sheep (10 mg, 30 min before or 1 h after antigen challenge, 6 h after challenge) was “attenuated”. In addition, the “Baseline TMV” value in the data set with allergic sheep (administered on its own (no antigen challenge), over a 6 h period) was “no effect”. In addition, in the data set with allergic sheep (given 6 h after antigen challenge, at 24 h after challenge), the “Antigen-induced fall in TMV” value is on record as “significant reversal”.

B1: Bikunin: Bikunin (SEQ ID NO: 52), two Kunitz domain human homologue of bovine aprotinin, used in airway and HBE studies (protein, listed as Homo sapiens)
chain: ADRERSIHDFCLVSKVVGRCRASMPRWWYNVTDGSCQLFVYGGCDGNSNNYLTKEECLKKCATVTENATGDLATSRNAADSSVPSAPRRQDSEDHSSDMFNYEEYCTANAVTGPCRASFPRWYFDVERNSCNNFIYGGCRGNKNSYRSEEACMLRCFRQQENPPLPLGSK
As for B1, the Sodium current result is reported as “decreases” in data set [1] (90 minute period) and “inhibited” in data set [1] (90 minute period, listed as Bukinin). The “Inhibition of Na+ Isc” value in data set [1] (5 μg.ml−1, normal HBE cells, further study) was 84%; in data set [4], 54%. The “Sodium short circuit current” value in data set [1] (5 ug/mL, FIG. 20) is listed as “decrease”.

B2: Recombinant Bikunin: fragment of placental bikunin containing both Kunitz domains (1-170), expressed in baculovirus/Sf9 cells (protein)
chain: B1 chain
For B2, the “Potency as inhibitor of plasma kallikrein compared with aprotinin (Trasylol), in words” value with human plasma kallikrein is “more potent”; with human plasma kallikrein (listed as bikunin(1-170)), “significantly more potent”.

These data come from patent US20070140979A1, “Method for accelerating the rate of mucociliary clearance” (BAYER AKTIENGESELLSCHAFT, priority 1998, published 2007).
